{"source": "patent US7465544B2", "about": "“Synthetic cofactor analogs of S-adenosylmethionine as ligatable probes of biological methylation and methods for their use” (Wisconsin Alumni Research Foundation, priority 2006, dated 2008)", "assay_type_in_all_cases": "biochemical", "key": {"M.TaqI [1]": {"molecular_target": "T1, M.TaqI (Thermus aquaticus, UniProt P14385)", "T1 sequence (P14385 whole entry)": "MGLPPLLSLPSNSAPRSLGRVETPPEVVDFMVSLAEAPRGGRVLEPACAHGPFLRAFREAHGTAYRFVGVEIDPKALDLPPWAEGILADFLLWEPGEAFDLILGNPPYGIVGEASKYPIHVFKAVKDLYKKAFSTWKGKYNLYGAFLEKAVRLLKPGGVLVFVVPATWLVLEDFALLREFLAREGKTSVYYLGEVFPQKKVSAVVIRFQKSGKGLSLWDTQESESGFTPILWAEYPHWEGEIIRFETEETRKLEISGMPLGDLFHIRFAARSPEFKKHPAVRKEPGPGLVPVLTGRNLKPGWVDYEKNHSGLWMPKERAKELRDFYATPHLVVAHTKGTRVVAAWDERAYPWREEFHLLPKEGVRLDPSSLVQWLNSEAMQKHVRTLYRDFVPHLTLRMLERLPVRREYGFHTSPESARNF"}, "M.EcoRI": {"molecular_target": "M.EcoRI (Escherichia coli, UniProt P00472)", "sequence (P00472 whole entry)": "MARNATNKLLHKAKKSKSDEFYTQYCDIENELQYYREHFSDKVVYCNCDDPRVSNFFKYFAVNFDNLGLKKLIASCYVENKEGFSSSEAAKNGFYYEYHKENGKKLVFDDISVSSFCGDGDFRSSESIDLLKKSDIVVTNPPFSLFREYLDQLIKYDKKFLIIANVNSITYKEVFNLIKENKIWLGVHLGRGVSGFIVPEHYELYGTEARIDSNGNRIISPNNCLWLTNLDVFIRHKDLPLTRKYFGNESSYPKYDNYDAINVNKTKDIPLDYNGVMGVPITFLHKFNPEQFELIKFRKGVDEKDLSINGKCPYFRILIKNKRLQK"}, "M.TaqI [2]": {"molecular_target": "T1, M.TaqI", "assay": "Restriction/protection assay: M.TaqI-mediated alkylation of R.EcoRI-linearized pUC19", "details": "for extent of DNA alkylation (protection from R.TaqI digestion) with increasing M.TaqI: 14.3 nM linearized pUC19, 20 to 200 nM M.TaqI, 65° C. 4 h; for extent of DNA alkylation (protection from R.TaqI digestion) with increasing M.TaqI / protection of DNA from R.TaqI in the absence of M.TaqI: 100 μM cofactor analog; for protection of DNA from R.TaqI in the absence of M.TaqI: no M.TaqI; for protection from R.TaqI with increasing cofactor analog concentration: 10 to 100 μM cofactor analog, 200 nM M.TaqI; for efficiency of M.TaqI dependent DNA alkylation relative to 3: linearized pUC19, disappearance of smaller restriction fragments"}, "M.HpaII": {"molecular_target": "T2, M.HpaII (Haemophilus parainfluenzae, UniProt P15446)", "T2 construct": "purchased New England Biolabs", "T2 sequence (P15446 1-358)": "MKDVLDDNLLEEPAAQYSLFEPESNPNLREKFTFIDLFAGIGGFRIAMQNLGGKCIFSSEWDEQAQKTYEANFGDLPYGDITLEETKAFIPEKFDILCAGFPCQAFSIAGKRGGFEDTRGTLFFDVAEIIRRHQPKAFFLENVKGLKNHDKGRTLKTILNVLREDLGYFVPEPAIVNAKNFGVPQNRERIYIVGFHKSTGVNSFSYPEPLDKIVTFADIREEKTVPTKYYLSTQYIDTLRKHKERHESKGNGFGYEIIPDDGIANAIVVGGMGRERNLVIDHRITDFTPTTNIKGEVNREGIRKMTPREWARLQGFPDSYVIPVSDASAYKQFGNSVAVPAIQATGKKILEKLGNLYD", "assay": "M.HpaII-catalyzed transfer of cofactor analogs to DNA"}, "M.SssI": {"molecular_target": "M.SssI (Spiroplasma monobiae, UniProt P15840)", "sequence (P15840 whole entry)": "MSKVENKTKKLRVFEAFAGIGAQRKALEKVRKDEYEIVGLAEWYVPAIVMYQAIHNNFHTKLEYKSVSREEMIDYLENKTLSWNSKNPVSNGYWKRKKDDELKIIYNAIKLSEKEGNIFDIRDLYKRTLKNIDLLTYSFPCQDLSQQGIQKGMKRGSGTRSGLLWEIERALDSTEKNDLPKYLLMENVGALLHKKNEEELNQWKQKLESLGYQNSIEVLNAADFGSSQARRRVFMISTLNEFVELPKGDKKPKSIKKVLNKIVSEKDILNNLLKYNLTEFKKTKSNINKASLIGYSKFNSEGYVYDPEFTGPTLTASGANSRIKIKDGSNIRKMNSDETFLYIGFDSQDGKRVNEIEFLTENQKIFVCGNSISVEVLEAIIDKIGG"}, "M.HhaI": {"molecular_target": "M.HhaI (Haemophilus parahaemolyticus, UniProt P05102)", "sequence (P05102 whole entry)": "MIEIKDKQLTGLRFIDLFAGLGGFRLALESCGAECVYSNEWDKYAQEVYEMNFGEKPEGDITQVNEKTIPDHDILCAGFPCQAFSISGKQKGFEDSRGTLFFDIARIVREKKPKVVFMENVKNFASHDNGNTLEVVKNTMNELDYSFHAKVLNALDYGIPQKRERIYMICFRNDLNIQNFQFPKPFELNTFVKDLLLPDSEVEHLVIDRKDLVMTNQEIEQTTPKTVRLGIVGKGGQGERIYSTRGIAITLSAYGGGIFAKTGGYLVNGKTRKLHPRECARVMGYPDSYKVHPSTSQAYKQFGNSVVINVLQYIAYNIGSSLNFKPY"}}, "note": "Where a name gives a salt, the structure may show the parent alone.", "data": [{"compound": "5′-aziridine adenylate [compound 3, reference compound]", "values": [{"measurement": "covalent attachment to synthetic oligonucleotide (DNA mobility shift)", "setting": "M.TaqI [1]", "result": "pronounced shift of the DNA mobility"}, {"measurement": "transfer of cofactor analog to radiolabeled synthetic oligo duplex", "setting": "M.EcoRI", "result": "clearly capable of transferring"}, {"measurement": "extent of DNA alkylation (protection from R.TaqI digestion) with increasing M.TaqI", "setting": "M.TaqI [2]", "result": "increase in the amount of DNA alkylation"}, {"measurement": "protection of DNA from R.TaqI in the absence of M.TaqI", "setting": "M.TaqI [2]", "result": "no protection of the DNA"}, {"measurement": "protection from R.TaqI with increasing cofactor analog concentration", "setting": "M.TaqI [2]", "result": "increased protection from R.TaqI"}, {"measurement": "M.HpaII-catalyzed transfer of cofactor analog", "setting": "M.HpaII", "result": "compatible"}]}, {"compound": "Nc1ncnc2c1ncn2[C@@H]1O[C@H](CN(CCI)CC[C@H](N)C(=O)O)C(O)[C@@H]1O", "note": "(stereo partly shown) [compound 67, 5′-(diaminobutyric acid)-N-iodoethyl-5′-deoxyadenosine ammonium hydrochloride]", "values": [{"measurement": "alkylation of duplex bearing 5-MeC for C substitution at the target base", "setting": "M.SssI", "result": "failed to undergo alkylation"}, {"measurement": "alkylation of duplex bearing 5-MeC for C substitution at the target base", "setting": "M.HhaI", "result": "failed to undergo alkylation"}, {"measurement": "DNA alkylation at 200 nM cofactor analog", "setting": "M.EcoRI", "result": "significant amount of slow mobility DNA"}, {"measurement": "lowest concentration at which cofactor analog is active", "setting": "M.EcoRI", "result": "≤ 40", "unit": "nM"}]}, {"compound": "[N-]=[N+]=Nc1nc2c(N)ncnc2n1[C@@H]1O[C@H](CN2CC2)C(O)[C@@H]1O", "note": "(stereo partly shown) [24a, 8-azido-5′-aziridino-5′-deoxyadenosine]", "values": [{"measurement": "covalent attachment to synthetic oligonucleotide (DNA mobility shift)", "setting": "M.TaqI [1]", "result": "pronounced shift of the DNA mobility"}, {"measurement": "transfer to the 55-mer duplex 5", "setting": "M.TaqI [1]", "result": "effectively catalyze the transfer"}, {"measurement": "M.SssI transfer of cofactor analog to its recognition sequence", "setting": "M.SssI", "result": "readily transfers"}, {"measurement": "efficiency of M.SssI mediated DNA alkylation, hemimethylated duplex 9 versus unmethylated duplex 8", "setting": "M.SssI", "result": "significantly more efficient for hemimethylated duplex 9"}, {"measurement": "M.HhaI-catalyzed transfer of cofactor analog", "setting": "M.HhaI", "result": "catalyzed the transfer"}, {"measurement": "transfer to the 55-mer duplex 5", "setting": "M.HhaI", "result": "effectively catalyze the transfer"}, {"measurement": "transfer of cofactor analog to radiolabeled synthetic oligo duplex", "setting": "M.EcoRI", "result": "closely parallels that observed with M.TaqI"}, {"measurement": "extent of DNA alkylation (protection from R.TaqI digestion) with increasing M.TaqI", "setting": "M.TaqI [2]", "result": "increase in the amount of DNA alkylation"}, {"measurement": "protection of DNA from R.TaqI in the absence of M.TaqI", "setting": "M.TaqI [2]", "result": "no protection of the DNA"}, {"measurement": "protection from R.TaqI with increasing cofactor analog concentration", "setting": "M.TaqI [2]", "result": "increased protection from R.TaqI"}, {"measurement": "efficiency of M.TaqI dependent DNA alkylation relative to 3", "setting": "M.TaqI [2]", "result": "better cofactor analogs for M.TaqI than is the unsubstituted cofactor analog 3"}, {"measurement": "M.HpaII-catalyzed transfer of cofactor analog", "setting": "M.HpaII", "result": "not able to catalyze the transfer"}]}, {"compound": "C#CCN(CCI)C[C@H]1O[C@@H](n2cnc3c(N)ncnc32)[C@@H](O)C1O", "note": "(stereo partly shown) [compound 56, 5′-[(iodoethyl)propargyl)amino]-2′,3′-5′-deoxyadenosine hydrochloride]", "values": [{"measurement": "DNA alkylation activity relative to 3", "setting": "M.TaqI [1]", "result": "closely parallels that of 3"}, {"measurement": "alkylation of duplex pre-methylated with SAM", "setting": "M.TaqI [1]", "result": "failed to undergo reaction"}, {"measurement": "DNA-damaging activity in the presence of M.HhaI", "setting": "M.HhaI", "result": "completely devoid of DNA-damaging activity"}, {"measurement": "DNA alkylation activity relative to 3", "setting": "M.EcoRI", "result": "closely parallels that of 3"}, {"measurement": "DNA alkylation at 200 nM cofactor analog", "setting": "M.EcoRI", "result": "not active at all"}, {"measurement": "alkylation of duplex pre-methylated with SAM", "setting": "M.EcoRI", "result": "failed to undergo reaction"}, {"measurement": "protection of linearized pUC19 DNA from R.TaqI digestion", "setting": "M.TaqI [2]; brief treatments with M.TaqI, unpublished data", "result": "used very effectively to protect linearized pUC19 DNA from R.TaqI digestion"}]}, {"compound": "[N-]=[N+]=NCCCCNc1nc2c(N)ncnc2n1[C@@H]1O[C@H](CN2CC2)[C@H](O)C1O", "note": "(stereo partly shown) [24b, 8-(4″-Azido-butylamino)-5′-aziridino-5′-deoxy adenosine]", "values": [{"measurement": "covalent attachment to synthetic oligonucleotide (DNA mobility shift)", "setting": "M.TaqI [1]", "result": "pronounced shift of the DNA mobility"}, {"measurement": "M.HhaI-catalyzed transfer of cofactor analog", "setting": "M.HhaI", "result": "catalyzed the transfer"}, {"measurement": "transfer of cofactor analog to radiolabeled synthetic oligo duplex", "setting": "M.EcoRI", "result": "closely parallels that observed with M.TaqI"}, {"measurement": "extent of DNA alkylation (protection from R.TaqI digestion) with increasing M.TaqI", "setting": "M.TaqI [2]", "result": "increase in the amount of DNA alkylation"}, {"measurement": "protection of DNA from R.TaqI in the absence of M.TaqI", "setting": "M.TaqI [2]", "result": "no protection of the DNA"}, {"measurement": "protection from R.TaqI with increasing cofactor analog concentration", "setting": "M.TaqI [2]", "result": "increased protection from R.TaqI"}, {"measurement": "efficiency of M.TaqI dependent DNA alkylation relative to 3", "setting": "M.TaqI [2]", "result": "better cofactor analogs for M.TaqI than is the unsubstituted cofactor analog 3"}, {"measurement": "M.HpaII-catalyzed transfer of cofactor analog", "setting": "M.HpaII", "result": "not able to catalyze the transfer"}]}]}
